One experiment concerns C. albicans. Put plainly: Treatment in liquid YP medium with different carbon sources, then spotting on solid YPD. Format: cell-based, Candida albicans. The settings on record: 128 μg/mL BE, 48 h. The text has this: FIG 2 Eno1 is a target of BE. (A) Schematic diagram of synthesis label-BE. Label-BE is synthesized by intermediate TPD-10a with benzyl bromide structure and triacetylated BE. (B) The molecular structure of label-BE. Label-BE contains a trifluoromethylphenyl diazo heterocyclic propylene group (marked by a red dotted line) as a photoaffinity group to enhance the binding of label-BE to its target proteins and an alkyne group (marked by a blue dotted line) connected with an azide group (from the TAMRA-N3 or biotin-N3) by a copper-catalyzed azide-alkyne cycloaddition. (C) The molecular structures of TAMRA-N3 and biotin-N3. Both of them contain azide groups (marked by a blue dotted line) connected with an alkyne group of label-BE to highlight the target proteins of label-BE. (D) The competition experiment with BE and label-BE used the TAMRA-N3 as a reporter. C. albicans cell lysates were preincubated with 100 μM BE (lane 2) or not (lane 3). Subsequently, the two groups were incubated with 10 μM label-BE and irradiated with UV light at 365 nm and then treated with TAMRA-N3. After separation of SDS-PAGE, label-BE-targeted proteins were visualized by in-gel fluorescence scanning. The three fluorescent bands in lane 3 (indicated by red triangles) were cut out and pooled and then analyzed by LC-MS/MS. (E) The competition experiment with BE and label-BE used the biotin-N3 as a reporter. In the following enrichment with streptavidin-conjugated beads and separation by SDS-PAGE gel, targets of label-BE were visualized by Coomassie blue staining. The brighter band in lane 3 (indicated by red triangle) was then cut out and analyzed by LC-MS/MS. […] C. albicans cells were first treated with 128 μg/mL BE in liquid YP medium with either 3-PG (32 mg/mL), pyruvate (32 mg/mL), glucose (20 mg/mL), or glycerol (2% [vol/vol]) for 48 h and then were spotted (1:10 dilution) onto solid YPD medium and photographed after 48 h of incubation at 30°C. The red termination line represents inhibition; 3-PG, 3-phosphoglyceric acid. (G) The competition experiment with BE and label-BE used the TAMRA-N3 as a reporter by E. coli cell lysates containing recombinant C. albicans Eno1.
In order to further identify which glycolysis-related protein is the target of BE, we investigated the antifungal activity of BE in the media containing different intermediate products of glycolysis. 3-Phosphoglyceric acid (3-PG) is a downstream intermediate of Pgk1-catalyzed glycolysis but an upstream intermediate of Eno1-catalyzed glycolysis, while pyruvate is a downstream intermediate of Eno1-catalyzed glycolysis (Fig. 2F). […]

For experiment [1], the target named is T1, recombinant C. albicans Eno1 (Candida albicans, UniProt P30575).
T1 construct: the full-length ENO1 gene from C. albicans was cloned into the pET-21a (+) plasmid; made in house; host or cells: E. coli BL21(DE3)
In words: Target protein competition experiment between BE and label-BE (TAMRA-N3 reporter). Format: binding. The settings on record: preincubation with 100 μM BE, then 10 μM label-BE; E. coli lysates with recombinant CaEno1. The text has this: FIG 2 Eno1 is a target of BE. (A) Schematic diagram of synthesis label-BE. Label-BE is synthesized by intermediate TPD-10a with benzyl bromide structure and triacetylated BE. (B) The molecular structure of label-BE. Label-BE contains a trifluoromethylphenyl diazo heterocyclic propylene group (marked by a red dotted line) as a photoaffinity group to enhance the binding of label-BE to its target proteins and an alkyne group (marked by a blue dotted line) connected with an azide group (from the TAMRA-N3 or biotin-N3) by a copper-catalyzed azide-alkyne cycloaddition. (C) The molecular structures of TAMRA-N3 and biotin-N3. […] After separation of SDS-PAGE, label-BE-targeted proteins were visualized by in-gel fluorescence scanning. The three fluorescent bands in lane 3 (indicated by red triangles) were cut out and pooled and then analyzed by LC-MS/MS. […] The brighter band in lane 3 (indicated by red triangle) was then cut out and analyzed by LC-MS/MS. […]
Target protein competition experiments between BE and label-BE were performed as described previously ([51], [52]). […] The bands with changes in fluorescence brightness were then cut off and analyzed by LC-MS/MS; for labeling label-BE with biotin-N3, protein solutions were enriched with streptavidin-conjugated beads. […]

For a further experiment, the target named is T2, hEno1 (Homo sapiens, UniProt P06733).
T2 construct: 6xHis; made in house; host or cells: E. coli BL21(DE3), inferred from 'same procedure' as CaEno1
In words: Enolase activity analysis (absorbance at 240 nm of PEP). The class given is biochemical.

The test system of another experiment is Candida albicans 103. In words: Checkerboard microdilution assay with fluconazole. Format: cell-based. The text has this:
Ta b l e S3. Interaction of fluconazole ( FLC) and BE probes against isolates of Candida albicans
Compounds Molecular structure Individual action Interaction MIC(μg/ mL ) FICI Mode of
MIC (μg /mL) FLC Compounds interaction
Background: In broth dilution the organism is exposed to a series of concentrations in liquid medium.

T2 sequence (P06733 whole entry): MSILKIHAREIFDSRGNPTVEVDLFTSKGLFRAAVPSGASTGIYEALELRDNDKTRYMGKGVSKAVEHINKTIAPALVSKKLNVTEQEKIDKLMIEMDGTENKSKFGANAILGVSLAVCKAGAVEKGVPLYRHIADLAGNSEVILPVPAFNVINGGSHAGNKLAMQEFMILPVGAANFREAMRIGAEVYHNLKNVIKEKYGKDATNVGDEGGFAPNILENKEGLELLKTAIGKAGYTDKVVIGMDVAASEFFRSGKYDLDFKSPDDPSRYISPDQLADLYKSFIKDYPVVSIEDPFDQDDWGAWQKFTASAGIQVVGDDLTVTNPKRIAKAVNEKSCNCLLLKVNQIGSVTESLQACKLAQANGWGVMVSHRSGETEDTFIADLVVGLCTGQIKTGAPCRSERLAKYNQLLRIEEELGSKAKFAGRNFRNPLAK
T1 sequence (P30575 whole entry): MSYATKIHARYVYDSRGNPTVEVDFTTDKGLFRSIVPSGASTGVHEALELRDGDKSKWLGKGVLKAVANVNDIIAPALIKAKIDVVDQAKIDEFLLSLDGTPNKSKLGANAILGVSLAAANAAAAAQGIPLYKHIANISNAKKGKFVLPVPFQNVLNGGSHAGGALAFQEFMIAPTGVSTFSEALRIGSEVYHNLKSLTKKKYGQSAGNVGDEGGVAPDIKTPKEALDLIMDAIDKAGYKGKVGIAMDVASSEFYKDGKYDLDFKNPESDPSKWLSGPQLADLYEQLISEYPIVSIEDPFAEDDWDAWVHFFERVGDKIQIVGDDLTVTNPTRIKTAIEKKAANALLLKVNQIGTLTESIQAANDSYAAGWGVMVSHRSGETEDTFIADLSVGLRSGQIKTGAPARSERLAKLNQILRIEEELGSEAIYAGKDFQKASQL
Experimental for hEno1: Enolase activity was determined by direct spectrophotometric assay via measuring the increase of absorbance at 240 nm of phosphoenolpyruvate (PEP) as described previously with some modifications ([54]). Briefly, the reaction buffer (pH 7.0) containing 10 mM imidazole, 200 mM KCl, and 0.5 mM MgAc in a final reaction volume of 100 μL was mixed with Eno1 (a final concentration of 30 nM), followed by the mixture of 2-phosphoglycerate (2-PG) (Yuanye Biotech Shanghai) with a final concentration of 1 mM. The enolase activity of Eno1 was evaluated by measuring the increase of absorbance (OD240) at room temperature for 10 min. […] The well-known enolase inhibitor sodium fluoride (NaF; Sangon Biotech) was initiated from 5 mM and used as a control ([29]). Inhibition curves were fitted by nonlinear regression (four parameters) using the GraphPad Prism software.

For `O=c1cc(-c2ccccc2)oc2cc(O)c(O)c(O)c12` [BE, Baicalein], the antifungal activity result in the experiment with C. albicans (liquid YP medium with 3-PG (32 mg/mL)) is given as “strong antifungal activity”; in the experiment on C. albicans (liquid YP medium with glucose (20 mg/mL)) it was “strong antifungal activity”; in the experiment with C. albicans (liquid YP medium with glycerol (2% vol/vol)), “no antifungal activity”; in the experiment on C. albicans (liquid YP medium with pyruvate (32 mg/mL)), “no antifungal activity”. The “competition with label-BE for the CaEno1 band (in-gel fluorescence)” value in experiment [1] is “remarkably reduce the fluorescent brightness”. Besides, the half-maximal inhibitory concentration (IC50) (as a rule, the concentration that inhibits the measured activity by half) against hEno1 came out at 91.3 ± 3.1 µM. For the same compound, the “Interaction MIC FLC” value in the experiment on Candida albicans 103 (MIC of FLC in combination with the compound) stood at 1 µg/mL. Further, the “Interaction MIC Compounds” value with Candida albicans 103 (MIC of the compound in combination with FLC) is 1 µg/mL. Moreover, the FICI in the experiment on Candida albicans 103 (combination with FLC) was found to be 0.039. Also, the Mode of interaction result with Candida albicans 103 (combination with FLC, FLC-resistant C. albicans) is recorded as “Synergism”. For the same compound, in the experiment with Candida albicans 103 (compound alone), the “Individual action MIC” value was 32 µg/mL.

The values are drawn from publication PMC9430770 (Microbiology Spectrum, 2022).
